Read-outs that look alike come from different tables or passages of the source.
Legend:
[1] = test system: HUVEC intracellular acid phosphatase; assay type: biochemical, human
[2] = test system: HDMEC intracellular acid phosphatase; test: acid phosphatase assay of HDMEC with AttoPhos/BBTP; assay type: biochemical, human; details: for Fluorescence: A/2 plate
Description: (§1) To establish a relation between acid phosphatase activity and cell numbers, cells were seeded at various densities (50-20,000) onto replicate plastic 96-well plates or half area 96-well microtiter plates (Costar) and incubated at 37° C. for 3.5 hours to allow attachment. Cell number was then assessed by measuring intracellular acid phosphatase with three different substrates: p-nitrophenyl phosphate, which has a calorimetric endpoint, 4-methylumbelliferyl phosphate (MUP) and 2'-[2-benzthiazoyl]-6'-hydoxybenzothiazole phosphate bis-[2-amino-2-methyl-13-propanediol] salt (AttoPhos™), which have fluorometric endpoints.
(§2) Plates were incubated for 1 hour at room temperature and the reaction was terminated with 50 μL of stop solution (240 mM diethanolamine, pH 10). Fluorescence was measured at excitation wavelength of 450 nm and emission wavelength of 580 nm using a fluorimeter (Cytofluor 4000, PerSeptive Biosystems). Nonenzymatic hydrolysis was determined in wells containing no cells and subtracted from the experimental values. Since the background is subtracted, in general, the actual signal to noise ratios at lower cell numbers is better than what presented in the table.

[3] = test system: CHO-K1 acid phosphatase; test: acid phosphatase assay of CHO-K1 with AttoPhos/BBTP; assay type: biochemical, Chinese hamster; details: for Fluorescence: A/2 plate
Description: as §1, §2

[4] = test system: 3T3 cells acid phosphatase; test: acid phosphatase assay of 3T3 cells with AttoPhos/BBTP; assay type: biochemical, mouse; details: for Fluorescence: 96-well plate, AttoPhos 500 μM
Description: as §1
as §2, with “After washing with D-PBS, 150 μL 0.5 mM AttoPhos™ in 0.1 M Tris-citrate (0.1 M Tris-base, 0.1 M citric acid, pH 6.5 containing 0.25% Triton X-100) was added to each well and placed on an orbital shaker for 5 minutes as described for MUP. Plates” for “Plates”

[5] = test system: T47-D acid phosphatase; test: Km of substrate for acid phosphatase, T47-D; assay type: biochemical; details: T47-D human breast carcinoma; BBTP 1.5 mM, 1 h at RT
Description: (§3) Km of substrate for acid phosphatase for a variety of cells

[6] = test system: K562 acid phosphatase; test: Km of substrate for acid phosphatase, K562; assay type: biochemical; details: K562 suspension, human chronic myelogenous leukemia; BBTP 1 mM, 1 h at RT
Description: as §3

[7] = test system: HL-60 acid phosphatase; test: Km of substrate for acid phosphatase, HL-60; assay type: biochemical; details: HL-60 suspension, human promyelocytic leukemia; BBTP 1 mM, 1 h at RT
Description: as §3

[8] = test system: 2008 acid phosphatase; test: Km of substrate for acid phosphatase, 2008; assay type: biochemical; details: 2008 human ovarian carcinoma; BBTP 1 mM, 1 h at RT
Description: as §3

[9] = test system: Molt-4 acid phosphatase; test: Km of substrate for acid phosphatase, Molt-4; assay type: biochemical; details: Molt-4 suspension, human acute lymphoblastic leukemia; BBTP 1 mM, 1 h at RT
Description: as §3

[10] = test system: acid phosphatases; test: Km of BBTP for acid phosphatases; assay type: biochemical; details: see EXAMPLES
Description: as §3

[11] = test system: Alkaline phosphatase; details: reported in U.S. Pat. No. 5,424,440; read-out: Km of the substrate with alkaline phosphatase; cited from earlier work

**Q.** Which results are given for `O=P(O)(O)Oc1ccc2nc(-c3nc4ccccc4s3)sc2c1` [BBTP, 2'(2-benzothiazoyl)-6'-hydroxy-benzthiazole phosphate]?
**A.** Fluorescence ([1]; 625 HUVEC/well, 96-well plate, AttoPhos 250 μM): 1695 ± 65 RFU; Fluorescence ([1]; 625 HUVEC/well, 96-well plate, AttoPhos 500 μM): 1561 ± 39 RFU; Fluorescence ([1]; 625 HUVEC/well, half area 96-well (A/2) plate, AttoPhos 250 μM): 1867 ± 68 RFU; Fluorescence ([1]; 625 HUVEC/well, half area 96-well (A/2) plate, AttoPhos 500 μM): 2040 ± 55 RFU; Fluorescence ([1]; 1,250 HUVEC/well, 96-well plate, AttoPhos 250 μM): 2853 ± 180 RFU; Fluorescence ([1]; 1,250 HUVEC/well, 96-well plate, AttoPhos 500 μM): 2737 ± 106 RFU; Fluorescence ([1]; 1,250 HUVEC/well, half area 96-well (A/2) plate, AttoPhos 250 μM): 3438 ± 132 RFU; Fluorescence ([1]; 1,250 HUVEC/well, half area 96-well (A/2) plate, AttoPhos 500 μM): 3757 ± 132 RFU; Fluorescence ([1]; 2,500 HUVEC/well, 96-well plate, AttoPhos 250 μM): 5019 ± 188 RFU; Fluorescence ([1]; 2,500 HUVEC/well, 96-well plate, AttoPhos 500 μM): 5186 ± 125 RFU; Fluorescence ([1]; 2,500 HUVEC/well, half area 96-well (A/2) plate, AttoPhos 250 μM): 6664 ± 128 RFU; Fluorescence ([1]; 2,500 HUVEC/well, half area 96-well (A/2) plate, AttoPhos 500 μM): 7046 ± 240 RFU; Fluorescence ([1]; 5,000 HUVEC/well, 96-well plate, AttoPhos 250 μM): 10578 ± 119 RFU; Fluorescence ([1]; 5,000 HUVEC/well, 96-well plate, AttoPhos 500 μM): 10406 ± 498 RFU; Fluorescence ([1]; 5,000 HUVEC/well, half area 96-well (A/2) plate, AttoPhos 250 μM): 12807 ± 399 RFU; Fluorescence ([1]; 5,000 HUVEC/well, half area 96-well (A/2) plate, AttoPhos 500 μM): 14586 ± 498 RFU; Fluorescence ([1]; 10,000 HUVEC/well, 96-well plate, AttoPhos 250 μM): 20670 ± 967 RFU; Fluorescence ([1]; 10,000 HUVEC/well, 96-well plate, AttoPhos 500 μM): 21198 ± 240 RFU; Fluorescence ([1]; 10,000 HUVEC/well, half area 96-well (A/2) plate, AttoPhos 250 μM): 25684 ± 1488 RFU; Fluorescence ([1]; 10,000 HUVEC/well, half area 96-well (A/2) plate, AttoPhos 500 μM): 28302 ± 448 RFU; Fluorescence ([1]; 20,000 HUVEC/well, 96-well plate, AttoPhos 250 μM): 37889 ± 501 RFU; Fluorescence ([1]; 20,000 HUVEC/well, 96-well plate, AttoPhos 500 μM): 38528 ± 1540 RFU; Fluorescence ([1]; 20,000 HUVEC/well, half area 96-well (A/2) plate, AttoPhos 250 μM): 46409 ± 1009 RFU; Fluorescence ([1]; 20,000 HUVEC/well, half area 96-well (A/2) plate, AttoPhos 500 μM): 49706 ± 790 RFU; Km ([1]; HUVEC, BBTP 0.5 mM, 1 h at RT): 88 µM; Fluorescence ([2]; 50 HDMEC/well, AttoPhos 100 μM): 829 ± 26 RFU; Fluorescence ([2]; 50 HDMEC/well, AttoPhos 250 μM): 1014 ± 80 RFU; Fluorescence ([2]; 50 HDMEC/well, AttoPhos 500 μM): 1496 ± 4.6 RFU; Fluorescence ([2]; 100 HDMEC/well, AttoPhos 100 μM): 1609 ± 157 RFU; Fluorescence ([2]; 100 HDMEC/well, AttoPhos 250 μM): 1545 ± 253 RFU; Fluorescence ([2]; 100 HDMEC/well, AttoPhos 500 μM): 2032 ± 97 RFU; Fluorescence ([2]; 250 HDMEC/well, AttoPhos 100 μM): 2347 ± 209 RFU; Fluorescence ([2]; 250 HDMEC/well, AttoPhos 250 μM): 2383 ± 24 RFU; Fluorescence ([2]; 250 HDMEC/well, AttoPhos 500 μM): 3686 ± 270 RFU; Fluorescence ([2]; 500 HDMEC/well, AttoPhos 100 μM): 3682 ± 263 RFU; Fluorescence ([2]; 500 HDMEC/well, AttoPhos 250 μM): 3998 ± 313 RFU; Fluorescence ([2]; 500 HDMEC/well, AttoPhos 500 μM): 6404 ± 665 RFU; Fluorescence ([2]; 1,000 HDMEC/well, AttoPhos 100 μM): 6653 ± 483 RFU; Fluorescence ([2]; 1,000 HDMEC/well, AttoPhos 250 μM): 7594 ± 411 RFU; Fluorescence ([2]; 1,000 HDMEC/well, AttoPhos 500 μM): 9822 ± 930 RFU; Fluorescence ([2]; 2,500 HDMEC/well, AttoPhos 100 μM): 15566 ± 167 RFU; Fluorescence ([2]; 2,500 HDMEC/well, AttoPhos 250 μM): 13382 ± 310 RFU; Fluorescence ([2]; 2,500 HDMEC/well, AttoPhos 500 μM): 20580 ± 436 RFU; Fluorescence ([2]; 5,000 HDMEC/well, AttoPhos 100 μM): 28018 ± 817 RFU; Fluorescence ([2]; 5,000 HDMEC/well, AttoPhos 250 μM): 25468 ± 843 RFU; Fluorescence ([2]; 5,000 HDMEC/well, AttoPhos 500 μM): 34112 ± 1797 RFU; Fluorescence ([2]; 10,000 HDMEC/well, AttoPhos 100 μM): 35787 ± 1325 RFU; Fluorescence ([2]; 10,000 HDMEC/well, AttoPhos 250 μM): 40725 ± 1850 RFU; Fluorescence ([2]; 10,000 HDMEC/well, AttoPhos 500 μM): 54430 ± 133 RFU; Km ([2]; HDMEC, BBTP 1.5 mM, 1 h at RT, read-out: Km): 80 µM; Km ([2]; human dermal microvascular endothelial cells, read-out: apparent Km): ~100 µM; Fluorescence ([3]; 250 CHO-K1/well, AttoPhos 100 μM): 552 ± 26 RFU; Fluorescence ([3]; 250 CHO-K1/well, AttoPhos 250 μM): 683 ± 36 RFU; Fluorescence ([3]; 250 CHO-K1/well, AttoPhos 500 μM): 721 ± 90 RFU; Fluorescence ([3]; 500 CHO-K1/well, AttoPhos 100 μM): 790 ± 70 RFU; Fluorescence ([3]; 500 CHO-K1/well, AttoPhos 250 μM): 1008 ± 21 RFU; Fluorescence ([3]; 500 CHO-K1/well, AttoPhos 500 μM): 1010 ± 126 RFU; Fluorescence ([3]; 1,000 CHO-K1/well, AttoPhos 100 μM): 1031 ± 138 RFU; Fluorescence ([3]; 1,000 CHO-K1/well, AttoPhos 250 μM): 1296 ± 64 RFU; Fluorescence ([3]; 1,000 CHO-K1/well, AttoPhos 500 μM): 1400 ± 47 RFU; Fluorescence ([3]; 2,000 CHO-K1/well, AttoPhos 100 μM): 2179 ± 156 RFU; Fluorescence ([3]; 2,000 CHO-K1/well, AttoPhos 250 μM): 2628 ± 148 RFU; Fluorescence ([3]; 2,000 CHO-K1/well, AttoPhos 500 μM): 2936 ± 382 RFU; Fluorescence ([3]; 4,000 CHO-K1/well, AttoPhos 100 μM): 3905 ± 234 RFU; Fluorescence ([3]; 4,000 CHO-K1/well, AttoPhos 250 μM): 4162 ± 122 RFU; Fluorescence ([3]; 4,000 CHO-K1/well, AttoPhos 500 μM): 4832 ± 357 RFU; Fluorescence ([3]; 8,000 CHO-K1/well, AttoPhos 100 μM): 7785 ± 684 RFU; Fluorescence ([3]; 8,000 CHO-K1/well, AttoPhos 250 μM): 8356 ± 237 RFU; Fluorescence ([3]; 8,000 CHO-K1/well, AttoPhos 500 μM): 9138 ± 440 RFU; Fluorescence ([3]; 12,000 CHO-K1/well, AttoPhos 100 μM): 12481 ± 462 RFU; Fluorescence ([3]; 12,000 CHO-K1/well, AttoPhos 250 μM): 12959 ± 124 RFU; Fluorescence ([3]; 12,000 CHO-K1/well, AttoPhos 500 μM): 12198 ± 83 RFU; Km ([3]; CHO-K1 Chinese hamster ovary, BBTP 0.5 mM, 1 h at RT): 172 µM; Fluorescence ([4]; 250 3T3 cells/well): 1866 ± 100 RFU; Fluorescence ([4]; 500 3T3 cells/well): 3194 ± 172 RFU; Fluorescence ([4]; 1,000 3T3 cells/well): 6149 ± 176 RFU; Fluorescence ([4]; 2,000 3T3 cells/well): 10115 ± 840 RFU; Fluorescence ([4]; 4,000 3T3 cells/well): 21314 ± 1558 RFU; Fluorescence ([4]; 8,000 3T3 cells/well): 44831 ± 1793 RFU; Fluorescence ([4]; 10,000 3T3 cells/well): 49860 ± 556 RFU; Km ([4]; NIH 3T3 mouse embryonic fibroblasts, BBTP 0.5 mM, 1, at RT): 87 µM; Km [5]: 261 µM; Km [6]: 82 µM; Km [7]: 108 µM; Km [8]: 106 µM; Km [9]: 130 µM; Km [10]: ~100 µM; Km [11]: ~2000 µM
